*1 amine or outer side, *2 acyl side, *3 side chain or, on linkers, in order; H or OH if unused. Where a SMILES comes first, the peptide text is derived from it. Bridges are numbered along the chain shown (N, C = ends). X1 = O=C(CCC[*:2])[*:1]
How the values were obtained:
[1] = Stability of the compound in simulated gastric fluid at pH 1.2 assessed as half life measured up to 24 hrs by RP-HPLC-UV analysis; type: ADME
[2] = Stability of the compound in simulated intestinal fluid at pH 6.8 assessed as half life measured up to 24 hrs by RP-HPLC-UV analysis; type: ADME

SMILES	half-life [1] [h]	half-life [2] [h]
CC[C@H](C)[C@@H]1NC(=O)[C@H](Cc2ccc(OC)cc2)NC(=O)CCCSC[C@@H](C(=O)N2CCC[C@H]2C(=O)N[C@@H](CC(C)C)C(=O)NCC(N)=O)NC(=O)[C@H](CC(N)=O)NC(=O)[C@H](CCC(N)=O)NC1=O [CARBETOCIN] (Y(Me)IQNCPLG-NH2; linker N-5 via X1)	> 24	
CC[C@H](C)[C@@H]1NC(=O)[C@H](Cc2ccc(O)cc2)NC(=O)[C@@H]2CSSC[C@@H]3NC(=O)[C@H](C(C)C)NC(=O)[C@@H]4CCCN4C(=O)[C@H](Cc4c[nH]c5ccccc45)NC(=O)[C@H](CO)NC(=O)[C@@H]4CSSC[C@H](NC(=O)[C@H]([C@@H](C)O)NC(=O)[C@H](CCC(=O)O)NC(=O)CNC(=O)[C@H](CSSC[C@H](NC(=O)[C@H](CC(N)=O)NC(=O)[C@H]([C@@H](C)O)NC1=O)C(=O)N[C@@H]([C@@H](C)O)C(=O)N4)NC(=O)[C@H](C(C)C)NC(=O)[C@@H]1CCCN1C(=O)[C@H](CC(C)C)NC(=O)CNC(=O)[C@H](CC(N)=O)NC(=O)[C@H](CCCNC(=N)N)NC(=O)[C@H]([C@@H](C)O)NC3=O)C(=O)N[C@@H](C(C)C)C(=O)NCC(=O)NCC(=O)N[C@@H]([C@@H](C)O)C(=O)N2		> 24
C[C@@H]1NC(=O)[C@@H]2CCCN2C(=O)[C@H](CC(N)=O)NC(=O)[C@@H]2CSSC[C@H](N)C(=O)N[C@H]3CSSC[C@H](NC1=O)C(=O)N[C@@H]([C@@H](C)O)C(=O)NCC(=O)N[C@H](C(=O)N[C@@H](Cc1ccc(O)cc1)C(=O)O)CSSC[C@H](NC(=O)[C@H](Cc1ccc(O)cc1)NC(=O)[C@H](CCC(=O)O)NC3=O)C(=O)N2 [LINACLOTIDE] (HELM PEPTIDE1{C.C.E.Y.C.C.N.P.A.C.T.G.C.Y}$PEPTIDE1,PEPTIDE1,1:R3-6:R3|PEPTIDE1,PEPTIDE1,2:R3-10:R3|PEPTIDE1,PEPTIDE1,5:R3-13:R3$$$V2.0)	> 24	
CC[C@@H](C)[C@H]1NC(=O)[C@@H](Cc2ccc(O)cc2)NC(=O)[C@H](N)CSSC[C@H](C(=O)N2CCC[C@@H]2C(=O)N[C@H](CC(C)C)C(=O)NCC(N)=O)NC(=O)[C@@H](CC(N)=O)NC(=O)[C@@H](CCC(N)=O)NC1=O		> 24
CC(C)C[C@@H]1NC(=O)[C@H](CCC(=O)O)NC(=O)[C@@H](NC(=O)[C@H](CCC(=O)O)NC(=O)[C@H](CC(=O)O)NC(=O)[C@H](N)CC(N)=O)CSSC[C@@H]2NC(=O)[C@H](C)NC(=O)[C@H](C(C)C)NC(=O)[C@H](CC(N)=O)NC(=O)[C@H](C(C)C)NC(=O)[C@H](CSSC[C@@H](C(=O)N[C@H](CC(C)C)C(=O)O)NC(=O)CNC(=O)[C@H]([C@@H](C)O)NC2=O)NC1=O	> 24	> 24
CC[C@H](C)[C@@H]1NC(=O)[C@H](CCC(=O)O)NC(=O)[C@@H]2CCCN2C(=O)[C@H](Cc2c[nH]cn2)NC(=O)[C@H](CC(=O)O)NC(=O)[C@H](Cc2ccc(O)cc2)NC(=O)[C@H](CC(N)=O)NC(=O)[C@@H]2CSSC[C@@H]3NC(=O)CNC(=O)CNC(=O)CNC(=O)[C@H](C)NC(=O)[C@H](C)NC(=O)CNC(=O)CNC(=O)[C@@H](CSSC[C@H](NC3=O)C(=O)N[C@@H](CO)C(=O)N[C@@H](CC(=O)O)C(=O)N3CCC[C@H]3C(=O)N[C@@H](CCCNC(=N)N)C(=O)N2)NC1=O	> 24	1.5
C[C@@H](O)[C@@H]1NC(=O)[C@H](CCCCN)NC(=O)[C@@H](Cc2c[nH]c3ccccc23)NC(=O)[C@H](Cc2ccccc2)NC(=O)[C@@H](NC(=O)[C@H](N)Cc2ccccc2)CSSC[C@@H](C(=O)N[C@H](CO)[C@@H](C)O)NC1=O [OCTREOTIDE]	> 24	
[H][C@@]12CCCN1C(=O)[C@@H]1CSSC[C@H](NC(=O)CNC(=O)[C@H](C)NC(=O)CNC(=O)[C@H](C)NC(=O)CNC(=O)[C@H](C)NC(=O)CNC(=O)[C@H](CC(C)C)NC2=O)C(=O)N[C@@H](Cc2ccc(O)cc2)C(=O)N[C@@H]([C@@H](C)CC)C(=O)N[C@@H](CCC(N)=O)C(=O)N[C@@H](CC(N)=O)C(=O)N1 (HELM PEPTIDE1{A.G.A.G.A.G.C.Y.I.Q.N.C.P.L.G}$PEPTIDE1,PEPTIDE1,7:R3-12:R3|PEPTIDE1,PEPTIDE1,1:R1-15:R2$$$V2.0)		< 0.05
NC(=O)CC[C@@H]1NC(=O)[C@H](Cc2ccccc2)NC(=O)[C@H](Cc2ccc(O)cc2)NC(=O)[C@@H](N)CSSC[C@@H](C(=O)N2CCC[C@H]2C(=O)N[C@@H](CCCN=C(N)N)C(=O)NCC(N)=O)NC(=O)[C@H](CC(N)=O)NC1=O [VASOPRESSIN]	> 24	
CC[C@H](C)[C@@H]1NC(=O)[C@H](Cc2ccc(O)cc2)NC(=O)[C@@H](N)CSSC[C@@H](C(=O)N2CCC[C@H]2C(=O)N[C@@H](CC(C)C)C(=O)NCC(N)=O)NC(=O)[C@H](CC(N)=O)NC(=O)[C@H](CCC(N)=O)NC1=O [OXYTOCIN]	> 24	
CC[C@H](C)[C@@H]1NC(=O)[C@H](CCC(=O)O)NC(=O)[C@@H]2CCCN2C(=O)[C@H](Cc2cnc[nH]2)NC(=O)[C@H](CC(=O)O)NC(=O)[C@H](Cc2ccc(O)cc2)NC(=O)[C@H](CC(N)=O)NC(=O)[C@@H]2CSSC[C@H](NC(=O)CN)C(=O)N[C@@H](CSSC[C@@H](C(N)=O)NC1=O)C(=O)N[C@@H](CO)C(=O)N[C@@H](CC(=O)O)C(=O)N1CCC[C@H]1C(=O)N[C@@H](CCCNC(=N)N)C(=O)N2	> 24	2.4
CC[C@H](C)[C@@H]1NC(=O)[C@H](Cc2ccc(O)cc2)NC(=O)[C@@H]2CSSC[C@@H]3NC(=O)[C@H]([C@@H](C)CC)NC(=O)[C@@H]4CCCN4C(=O)[C@H](Cc4c[nH]c5ccccc45)NC(=O)[C@H](CO)NC(=O)[C@@H]4CSSC[C@H](NC(=O)[C@H]([C@@H](C)O)NC(=O)[C@H](CCC(=O)O)NC(=O)CNC(=O)[C@H](CSSC[C@H](NC(=O)[C@H](CC(N)=O)NC(=O)[C@H]([C@@H](C)O)NC1=O)C(=O)N[C@@H]([C@@H](C)O)C(=O)N4)NC(=O)[C@H](C(C)C)NC(=O)[C@@H]1CCCN1C(=O)[C@H](CC(C)C)NC(=O)CNC(=O)[C@H](CC(N)=O)NC(=O)[C@H](CCCNC(=N)N)NC(=O)[C@H](CCCCN)NC3=O)C(=O)N[C@@H]([C@@H](C)O)C(=O)N[C@@H](CC(C)C)C(=O)NCC(=O)N[C@@H]([C@@H](C)O)C(=O)N2		> 24
CC[C@H](C)[C@@H]1NC(=O)[C@@H]2CSSC[C@H](NC(=O)[C@H](CCCNC(=N)N)NC(=O)[C@@H]3CSSC[C@H](NC1=O)C(=O)N[C@@H]([C@@H](C)O)C(=O)N[C@@H](CCCNC(=N)N)C(=O)NCC(=O)N[C@@H](Cc1ccccc1)C(=O)N3)C(=O)N[C@@H](CC(C)C)C(=O)N[C@H]1CSSC[C@H](NC(=O)[C@H](C(C)C)NC(=O)CNC(=O)[C@H](CCCNC(=N)N)NC(=O)[C@H](CCCNC(=N)N)NC1=O)C(=O)N[C@@H](CCCNC(=N)N)C(=O)N2 (HELM PEPTIDE1{G.F.C.R.C.L.C.R.R.G.V.C.R.C.I.C.T.R}$PEPTIDE1,PEPTIDE1,3:R3-16:R3|PEPTIDE1,PEPTIDE1,5:R3-14:R3|PEPTIDE1,PEPTIDE1,7:R3-12:R3|PEPTIDE1,PEPTIDE1,1:R1-18:R2$$$V2.0)	2.2	
CC(C)C[C@H](NC(=O)[C@@H]1CSSC[C@@H]2NC(=O)[C@H](CC(C)C)NC(=O)[C@H](CCC(=O)O)NC(=O)[C@@H](NC(=O)[C@H](CCC(=O)O)NC(=O)[C@H](CC(=O)O)NC(=O)[C@@H](N)CC(N)=O)CSSC[C@H](NC(=O)[C@H](C)NC(=O)[C@H](C(C)C)NC(=O)[C@H](CC(N)=O)NC(=O)[C@H](C(C)C)NC2=O)C(=O)N[C@@H]([C@@H](C)O)C(=O)NCC(=O)N1)C(=O)O [PLECANATIDE]	> 24	
CC[C@H](C)[C@@H]1NC(=O)[C@@H]2CCCN2C(=O)[C@@H]2CCCN2C(=O)[C@H]([C@@H](C)CC)NC(=O)[C@H](CO)NC(=O)[C@H](CCCCN)NC(=O)[C@H]([C@@H](C)O)NC(=O)[C@@H]2CSSC[C@H](NC1=O)C(=O)N[C@@H](Cc1ccc(OC)cc1)C(=O)N[C@@H](Cc1ccccc1)C(=O)N[C@@H](CCC(N)=O)C(=O)N[C@@H](CC(N)=O)C(=O)N[C@@H](CCCNC(=N)N)C(=O)N1CCC[C@H]1C(=O)N[C@@H](CCCNC(=N)N)C(=O)N2 (cyclo(CTKSIPPICY(Me)FQNRPR); disulfide 1-9)		0.05
CC[C@H](C)[C@@H]1NC(=O)[C@H](Cc2ccc(O)cc2)NC(=O)[C@@H](N)CSSC[C@@H](C(=O)N2CCC[C@H]2C(=O)N[C@@](C)(CC(C)C)C(=O)NCC(N)=O)NC(=O)[C@H](CC(N)=O)NC(=O)[C@H](CCC(N)=O)NC1=O		4.4
CC[C@H](C)[C@@H]1NC(=O)[C@H](Cc2ccc(O)cc2)NC(=O)[C@@H]2CSSC[C@H](NC(=O)[C@H](CC(N)=O)NC(=O)[C@H](CCC(N)=O)NC1=O)C(=O)N1CCC[C@H]1C(=O)N[C@@H](CC(C)C)C(=O)NCC(=O)N2		0.117
CC[C@H](C)[C@@H]1NC(=O)[C@H](Cc2ccc(O)cc2)NC(=O)[C@@H](N)CSSC[C@@H](C(=O)N2CCC[C@H]2C(=O)N[C@@H](CC(C)C)C(=O)N(C)CC(N)=O)NC(=O)[C@H](CC(N)=O)NC(=O)[C@H](CCC(N)=O)NC1=O		2.9
CC[C@H](C)[C@@H]1NC(=O)[C@H](Cc2ccc(O)cc2)NC(=O)[C@@H](N)CSSC[C@@H](C(=O)N2CCC[C@H]2C(=O)N[C@H](CC(=O)NCC(N)=O)CC(C)C)NC(=O)[C@H](CC(N)=O)NC(=O)[C@H](CCC(N)=O)NC1=O		3.6
CC[C@H](C)[C@@H]1NC(=O)[C@H](Cc2ccc(O)cc2)NC(=O)[C@@H]2CSSC[C@@H]3NC(=O)[C@H](C(C)C)NC(=O)[C@@H]4CCCN4C(=O)[C@H](Cc4c[nH]c5ccccc45)NC(=O)[C@H](CO)NC(=O)[C@@H]4CSSC[C@H](NC(=O)[C@H]([C@@H](C)O)NC(=O)[C@H](CCC(=O)O)NC(=O)CNC(=O)[C@H](CSSC[C@H](NC(=O)[C@H](CC(N)=O)NC(=O)[C@H](CCC(N)=O)NC1=O)C(=O)N[C@@H]([C@@H](C)O)C(=O)N4)NC(=O)[C@H](C(C)C)NC(=O)[C@@H]1CCCN1C(=O)[C@H](CC(C)C)NC(=O)CNC(=O)[C@H](CC(N)=O)NC(=O)[C@H](CCCNC(=N)N)NC(=O)[C@H]([C@@H](C)O)NC3=O)C(=O)N[C@@H](C(C)C)C(=O)NCC(=O)NCC(=O)N[C@@H]([C@@H](C)O)C(=O)N2		> 24
